Experimental data from US10758534B2 (Vertex Pharmaceuticals Incorporated, priority 2014, dated 2020).
Like-named read-outs stand apart in the source and are kept apart here.

Molecular target: T1, F508del (Homo sapiens, UniProt P13569, DEL508-508)
T1 construct: expressed in transfected cells
Test: Protocol 2: FRET membrane potential optical assay (VIPR), identification of correction compounds
Format: cell-based
Method in brief: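 Correction of the F508del trafficking defect is scored as forskolin (10 μM)/genistein (20 μM)-stimulated Cl^− efflux in NIH3T3 mouse fibroblasts after a 16 hr, 37° C. compound exposure. Depolarization was followed optically using voltage-sensing FRET dyes.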

[1] = F508del CFTR modulator activity, compounds of Table 1, read-out: EC30
[2] = Table 3, compounds of Table 1 as modulators of CFTR activity, protocol not stated

T1 sequence (P13569 with tags, fused parts or gaps DEL508-508): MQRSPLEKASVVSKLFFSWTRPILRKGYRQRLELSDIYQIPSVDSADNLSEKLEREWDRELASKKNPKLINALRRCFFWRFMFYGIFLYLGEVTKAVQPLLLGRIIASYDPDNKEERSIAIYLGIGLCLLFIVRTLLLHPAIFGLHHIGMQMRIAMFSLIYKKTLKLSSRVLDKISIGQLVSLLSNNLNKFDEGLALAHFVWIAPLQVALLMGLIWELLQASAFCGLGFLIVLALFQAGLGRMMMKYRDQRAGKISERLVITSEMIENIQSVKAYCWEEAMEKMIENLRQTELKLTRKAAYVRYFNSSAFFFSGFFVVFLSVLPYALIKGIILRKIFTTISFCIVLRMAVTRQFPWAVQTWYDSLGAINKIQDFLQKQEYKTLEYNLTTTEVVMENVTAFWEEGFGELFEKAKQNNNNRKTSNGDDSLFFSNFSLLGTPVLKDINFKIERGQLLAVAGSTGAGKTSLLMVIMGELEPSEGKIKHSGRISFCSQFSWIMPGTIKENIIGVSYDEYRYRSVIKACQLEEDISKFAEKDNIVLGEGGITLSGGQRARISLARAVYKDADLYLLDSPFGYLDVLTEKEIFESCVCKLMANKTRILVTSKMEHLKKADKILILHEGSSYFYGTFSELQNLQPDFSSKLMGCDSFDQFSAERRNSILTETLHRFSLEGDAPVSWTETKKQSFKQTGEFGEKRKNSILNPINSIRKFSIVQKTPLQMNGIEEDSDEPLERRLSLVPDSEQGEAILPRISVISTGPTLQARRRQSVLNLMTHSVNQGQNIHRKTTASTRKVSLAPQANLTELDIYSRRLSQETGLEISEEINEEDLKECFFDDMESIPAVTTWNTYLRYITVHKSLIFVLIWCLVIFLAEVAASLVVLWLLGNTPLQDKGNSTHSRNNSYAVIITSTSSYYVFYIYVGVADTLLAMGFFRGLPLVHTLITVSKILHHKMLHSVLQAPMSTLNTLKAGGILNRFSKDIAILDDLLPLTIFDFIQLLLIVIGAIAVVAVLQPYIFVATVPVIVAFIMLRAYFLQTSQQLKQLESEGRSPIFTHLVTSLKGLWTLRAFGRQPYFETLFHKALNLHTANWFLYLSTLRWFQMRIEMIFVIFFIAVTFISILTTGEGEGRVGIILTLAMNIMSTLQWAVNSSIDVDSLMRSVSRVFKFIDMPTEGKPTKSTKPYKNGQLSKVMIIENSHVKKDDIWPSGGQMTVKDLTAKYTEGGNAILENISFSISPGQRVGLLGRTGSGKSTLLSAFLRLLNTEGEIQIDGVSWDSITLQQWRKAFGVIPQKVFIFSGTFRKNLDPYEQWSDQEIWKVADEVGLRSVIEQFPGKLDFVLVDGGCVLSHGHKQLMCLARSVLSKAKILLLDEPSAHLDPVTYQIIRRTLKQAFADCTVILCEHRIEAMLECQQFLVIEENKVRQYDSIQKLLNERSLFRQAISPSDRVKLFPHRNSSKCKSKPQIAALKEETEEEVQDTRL

Row | EC30 [1] | EC30 [2] | Structure (SMILES)
1 | < 3 µM |  | Cc1ccc(-c2ccc(C(=O)NS(=O)(=O)c3cccnc3N)c(N3C[C@@H](C)CC3(C)C)n2)c(F)c1 [Compound 2613, N-[(2-amino-3-pyridyl)sulfonyl]-6-(2-fluoro-4-methyl-phenyl)-2-[(4S)-2,2,4-trimethylpyrrolidin-1-yl]pyridine-3-carboxamide]
2 |  | +++ (“+++” means <3 uM) | Cc1cc(C)c(Oc2nc(C(C)(C)C)ncc2C(=O)NS(=O)(=O)c2cccc(N)c2)c(C)c1 [Compound 68, N-(3-aminophenyl)sulfonyl-2-tert-butyl-4-(2,4,6-trimethylphenoxy)pyrimidine-5-carboxamide]
3 |  | +++ (“+++” means <3 uM) | Cc1cc(C)c(Oc2nc(C(C)(C)C)ccc2C(=O)NS(=O)(=O)c2cccc3[nH]ccc23)c(C)c1 [Compound 275, 6-tert-butyl-N-(1H-indol-4-ylsulfonyl)-2-(2,4,6-trimethylphenoxy)pyridine-3-carboxamide]
4 |  | ++ (“++” means between 3 uM and 10 uM) | COc1ncc(-c2ccc(C(=O)NS(=O)(=O)c3cccc(N)n3)c(Oc3c(C)cc(C)cc3C)n2)c(OC)n1 [Compound 499, N-[(6-amino-2-pyridyl)sulfonyl]-6-(2,4-dimethoxypyrimidin-5-yl)-2-(2,4,6-trimethylphenoxy)pyridine-3-carboxamide]
5 |  | +++ (“+++” means <3 uM) | CC(C)Oc1ccc(-c2ccc(C(=O)NS(=O)(=O)c3ccn[nH]3)c(N3CCC[C@@H](c4ccccc4)C3)n2)cn1 [Compound 776, 6-(6-isopropoxy-3-pyridyl)-2-[(3S)-3-phenyl-1-piperidyl]-N-(1H-pyrazol-5-ylsulfonyl)pyridine-3-carboxamide]
6 | < 3 µM |  | Cc1c(F)cccc1-c1ccc(C(=O)NS(=O)(=O)c2ccc[nH]c2=O)c(N2C[C@@H](C)CC2(C)C)n1 [Compound 2491, 6-(3-fluoro-2-methyl-phenyl)-N-[(2-oxo-1H-pyridin-3-yl)sulfonyl]-2-[(4S)-2,2,4-trimethylpyrrolidin-1-yl]pyridine-3-carboxamide]
7 |  | +++ (“+++” means <3 uM) | Cc1cc(C)c(Oc2nc(C(C)(C)C)ccc2C(=O)NS(=O)(=O)c2ccccc2N)c(C)c1 [Compound 322, N-(2-aminophenyl)sulfonyl-6-tert-butyl-2-(2,4,6-trimethylphenoxy)pyridine-3-carboxamide]
8 |  | +++ (“+++” means <3 uM) | COc1ccc(-c2ccc(C(=O)NS(=O)(=O)c3cccc(N)n3)c(Oc3c(C)cc(C)cc3C)n2)cn1 [Compound 531, N-[(6-amino-2-pyridyl)sulfonyl]-6-(6-methoxy-3-pyridyl)-2-(2,4,6-trimethylphenoxy)pyridine-3-carboxamide]
9 | 3 to 10 µM |  | COc1cccc(F)c1-c1ccc(C(=O)NS(=O)(=O)c2ccc[nH]c2=O)c(N2C[C@@H](C)CC2(C)C)n1 [Compound 2422, 6-(2-fluoro-6-methoxy-phenyl)-N-[(2-oxo-1H-pyridin-3-yl)sulfonyl]-2-[(4S)-2,2,4-trimethylpyrrolidin-1-yl]pyridine-3-carboxamide]
10 | 3 to 10 µM |  | CC1CN(c2ncccc2C(=O)NS(=O)(=O)c2cccc(Nc3ccc4[nH]ncc4c3)n2)C(C)(C)C1 (centres unmarked) [Compound 2389, N—[[6-(1H-indazol-5-ylamino)-2-pyridyl]sulfonyl]-2-(2,2,4-trimethylpyrrolidin-1-yl)pyridine-3-carboxamide]
11 | < 3 µM |  | Cc1ccc(F)cc1-c1ccc(C(=O)NS(=O)(=O)c2cccnc2N)c(N2C[C@@H](C)CC2(C)C)n1 [Compound 2660, N-[(2-amino-3-pyridyl)sulfonyl]-6-(5-fluoro-2-methyl-phenyl)-2-[(4S)-2,2,4-trimethylpyrrolidin-1-yl]pyridine-3-carboxamide]
12 | < 3 µM |  | Cc1cc(-c2cnc(N3CC(C)CC3(C)C)c(C(=O)NS(=O)(=O)c3cccc(N)n3)c2)cc(C(C)(C)C)c1 (centres unmarked) [Compound 2322, N-[(6-amino-2-pyridyl)sulfonyl]-5-(3-tert-butyl-5-methyl-phenyl)-2-(2,2,4-trimethylpyrrolidin-1-yl)pyridine-3-carboxamide]
13 |  | ++ (“++” means between 3 uM and 10 uM) | Cc1cc(C)c(Oc2nc(-c3cccc(CC#N)c3)ccc2C(=O)NS(=O)(=O)c2cccc(N)n2)c(C)c1 [Compound 388, N-[(6-amino-2-pyridyl)sulfonyl]-6-[3-(cyanomethyl)phenyl]-2-(2,4,6-trimethylphenoxy)pyridine-3-carboxamide]

More lines, now with the values behind:

Row | Structure (SMILES) | EC30 [1] | EC30 [2]
14 | CC(C)(C)c1ccc(C(=O)NS(=O)(=O)c2cccc(N)n2)c(C2=CCCC2)n1 [Compound 529, N-[(6-amino-2-pyridyl)sulfonyl]-6-tert-butyl-2-(cyclopenten-1-yl)pyridine-3-carboxamide] |  | ++ (“++” means between 3 uM and 10 uM)
15 | Cc1cc(C)c(Cn2nc(C(C)(C)C)cc2C(=O)NS(=O)(=O)c2cccc3ncccc23)c(C)c1 [Compound 352, 5-tert-butyl-N-(5-quinolylsulfonyl)-2-[(2,4,6-trimethylphenyl)methyl]pyrazole-3-carboxamide] |  | +++ (“+++” means <3 uM)
16 | Cn1ccc2cccc(Oc3nc(C(C)(C)C)ccc3C(=O)NS(=O)(=O)c3ccccc3)c21 [Compound 326, N-(benzenesulfonyl)-6-tert-butyl-2-(1-methylindol-7-yl)oxy-pyridine-3-carboxamide] |  | +++ (“+++” means <3 uM)
17 | CC(C)COc1cc(F)cc(-c2ccc(C(=O)NS(=O)(=O)c3cccc(N)n3)c(N3CC(C)CCC3C)n2)c1 (single isomer, unassigned) [Compound 2451, N-[(6-amino-2-pyridyl)sulfonyl]-2-(2,5-dimethyl-1-piperidyl)-6-(3-fluoro-5-isobutoxy-phenyl)pyridine-3-carboxamide] | < 3 µM | 
18 | C[C@@H]1CN(c2nc(N3CCOC(C)(C)C3)c(F)cc2C(=O)NS(=O)(=O)c2cccc(N)n2)C(C)(C)C1 [Compound 2586, N-[(6-amino-2-pyridyl)sulfonyl]-6-(2,2-dimethylmorpholin-4-yl)-5-fluoro-2-[(4S)-2,2,4-trimethylpyrrolidin-1-yl]pyridine-3-carboxamide] | 3 to 10 µM | 
19 | COc1cc(F)ccc1-c1ccc(C(=O)NS(=O)(=O)c2ccc[nH]c2=O)c(N2C[C@@H](C)CC2(C)C)n1 [Compound 2356, 6-(4-fluoro-2-methoxy-phenyl)-N-[(2-oxo-1H-pyridin-3-yl)sulfonyl]-2-[(4S)-2,2,4-trimethylpyrrolidin-1-yl]pyridine-3-carboxamide] | < 3 µM | 
20 | CC(C)COc1cc(F)cc(-c2ccc(C(=O)NS(=O)(=O)c3cccc(N)n3)c(N3CC4C(C3)C4(C)C)n2)c1 (centres unmarked) [Compound 609, N-[(6-amino-2-pyridyl)sulfonyl]-2-(6,6-dimethyl-3-azabicyclo[3.1.0]hexan-3-yl)-6-(3-fluoro-5-isobutoxy-phenyl)pyridine-3-carboxamide] |  | +++ (“+++” means <3 uM)
21 | CCOc1cccc2c1CN(Cc1c(C)cc(C)cc1C)C2(C)C(=O)NS(=O)(=O)c1ccc[nH]c1=O (centres unmarked) [Compound 410, 4-ethoxy-1-methyl-N-[(2-oxo-1H-pyridin-3-yl)sulfonyl]-2-[(2,4,6-trimethylphenyl)methyl]isoindoline-1-carboxamide] |  | +++ (“+++” means <3 uM)
22 | Cc1ccc(-c2cc(C(=O)NS(=O)(=O)c3ccccc3)n(Cc3c(C)cccc3C)n2)cc1 [Compound 199, N-(benzenesulfonyl)-2-[(2,6-dimethylphenyl)methyl]-5-(p-tolyl)pyrazole-3-carboxamide] |  | +++ (“+++” means <3 uM)
23 | CC(C)(C)c1cc(C(=O)NS(=O)(=O)c2cccc(N)c2)n(Cc2cccc3ccccc23)n1 [Compound 295, N-(3-aminophenyl)sulfonyl-5-tert-butyl-2-(1-naphthylmethyl)pyrazole-3-carboxamide] |  | ++ (“++” means between 3 uM and 10 uM)
24 | CC(C)COc1cc(F)cc(-c2ccc(C(=O)NS(=O)(=O)c3cccc(N)n3)c(N3CC(C(C)C)CC3(C)C)n2)c1 (centres unmarked) [Compound 2201, N-[(6-amino-2-pyridyl)sulfonyl]-6-(3-fluoro-5-isobutoxy-phenyl)-2-(4-isopropyl-2,2-dimethyl-pyrrolidin-1-yl)pyridine-3-carboxamide] | < 3 µM | 
25 | CC1CN(c2nc(-c3ccncc3)ccc2C(=O)NS(=O)(=O)c2cccc(N)n2)C(C)(C)C1 (centres unmarked) [Compound 643, N-[(6-amino-2-pyridyl)sulfonyl]-6-(4-pyridyl)-2-(2,2,4-trimethylpyrrolidin-1-yl)pyridine-3-carboxamide] |  | ++ (“++” means between 3 uM and 10 uM)
26 | C[C@@H]1CN(c2nc(-c3cc(F)cc(F)c3)ccc2C(=O)NS(=O)(=O)c2cccc(N)n2)C(C)(C)C1 [Compound 2236, N-[(6-amino-2-pyridyl)sulfonyl]-6-(3,5-difluorophenyl)-2-[(4S)-2,2,4-trimethylpyrrolidin-1-yl]pyridine-3-carboxamide] | < 3 µM | 
27 | C[C@@H]1CN(c2nc([C@H]3CC[C@@H](C(F)(F)F)CC3)ccc2C(=O)NS(=O)(=O)c2ccc[nH]c2=O)C(C)(C)C1 [Compound 2315, N-[(2-oxo-1H-pyridin-3-yl)sulfonyl]-6-[4-(trifluoromethyl)cyclohexyl]-2-[(4S)-2,2,4-trimethylpyrrolidin-1-yl]pyridine-3-carboxamide] | < 3 µM | 
28 | Cc1cc(C)c(Oc2nc(-c3cccc(OCC(C)C)c3)ccc2C(=O)NS(=O)(=O)c2cccc(N)n2)c(C)c1 [Compound 8, N-[(6-amino-2-pyridyl)sulfonyl]-6-(3-isobutoxyphenyl)-2-(2,4,6-trimethylphenoxy)pyridine-3-carboxamide] |  | +++ (“+++” means <3 uM)
29 | CC(C)COc1cc(F)cc(-c2ccc(C(=O)NS(=O)(=O)N3CC(O)CC(F)(F)C3)c(N3C[C@@H](C)CC3(C)C)n2)c1 (stereo partly drawn) [Compound 2508, N-[(3,3-difluoro-5-hydroxy-1-piperidyl)sulfonyl]-6-(3-fluoro-5-isobutoxy-phenyl)-2-[(4S)-2,2,4-trimethylpyrrolidin-1-yl]pyridine-3-carboxamide] | < 3 µM | 
